Where two headings read alike, the source gives them in different places.
Tests used:
Assay in all cases: biochemical
Set-up in all cases: DiscoveRx KINOMEscan active site-directed competition binding; percent of control kinase bound to immobilised ligand
ALK(L1196M) = ALK(L1196M) (Homo sapiens, UniProt Q9UM73, L1196M)
IGF1R = IGF1R (Homo sapiens, UniProt P08069)
PRKD2 = molecular target: T1, PRKD2 (Homo sapiens, UniProt Q9BZL6)
T1 sequence (Q9BZL6 1-878): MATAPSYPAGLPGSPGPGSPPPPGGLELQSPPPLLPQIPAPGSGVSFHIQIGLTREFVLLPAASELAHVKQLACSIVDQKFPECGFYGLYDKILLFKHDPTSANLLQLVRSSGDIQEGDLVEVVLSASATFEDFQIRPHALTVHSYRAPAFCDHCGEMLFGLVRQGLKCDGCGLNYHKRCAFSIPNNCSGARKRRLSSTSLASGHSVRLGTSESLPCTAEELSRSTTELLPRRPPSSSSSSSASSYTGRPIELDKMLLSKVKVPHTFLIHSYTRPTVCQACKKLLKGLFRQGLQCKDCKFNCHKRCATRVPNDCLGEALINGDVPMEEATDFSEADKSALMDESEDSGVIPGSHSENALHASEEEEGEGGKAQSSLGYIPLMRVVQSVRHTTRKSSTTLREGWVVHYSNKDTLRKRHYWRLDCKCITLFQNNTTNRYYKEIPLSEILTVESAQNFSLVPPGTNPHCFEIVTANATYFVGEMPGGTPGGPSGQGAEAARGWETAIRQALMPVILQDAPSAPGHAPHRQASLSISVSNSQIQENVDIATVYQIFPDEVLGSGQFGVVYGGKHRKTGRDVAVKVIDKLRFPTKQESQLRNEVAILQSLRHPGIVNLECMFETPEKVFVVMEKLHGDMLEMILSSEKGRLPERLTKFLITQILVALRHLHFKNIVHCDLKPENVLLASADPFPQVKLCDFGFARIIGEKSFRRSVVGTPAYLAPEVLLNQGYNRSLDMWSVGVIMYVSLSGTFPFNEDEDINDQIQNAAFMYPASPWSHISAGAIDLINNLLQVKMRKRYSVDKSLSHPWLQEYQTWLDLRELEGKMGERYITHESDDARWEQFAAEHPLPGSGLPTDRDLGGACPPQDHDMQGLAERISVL

FLT3(D835Y) = molecular target: T2, FLT3(D835Y) (Homo sapiens, UniProt P36888, D835Y)
T2 sequence (P36888 1-993 D835Y): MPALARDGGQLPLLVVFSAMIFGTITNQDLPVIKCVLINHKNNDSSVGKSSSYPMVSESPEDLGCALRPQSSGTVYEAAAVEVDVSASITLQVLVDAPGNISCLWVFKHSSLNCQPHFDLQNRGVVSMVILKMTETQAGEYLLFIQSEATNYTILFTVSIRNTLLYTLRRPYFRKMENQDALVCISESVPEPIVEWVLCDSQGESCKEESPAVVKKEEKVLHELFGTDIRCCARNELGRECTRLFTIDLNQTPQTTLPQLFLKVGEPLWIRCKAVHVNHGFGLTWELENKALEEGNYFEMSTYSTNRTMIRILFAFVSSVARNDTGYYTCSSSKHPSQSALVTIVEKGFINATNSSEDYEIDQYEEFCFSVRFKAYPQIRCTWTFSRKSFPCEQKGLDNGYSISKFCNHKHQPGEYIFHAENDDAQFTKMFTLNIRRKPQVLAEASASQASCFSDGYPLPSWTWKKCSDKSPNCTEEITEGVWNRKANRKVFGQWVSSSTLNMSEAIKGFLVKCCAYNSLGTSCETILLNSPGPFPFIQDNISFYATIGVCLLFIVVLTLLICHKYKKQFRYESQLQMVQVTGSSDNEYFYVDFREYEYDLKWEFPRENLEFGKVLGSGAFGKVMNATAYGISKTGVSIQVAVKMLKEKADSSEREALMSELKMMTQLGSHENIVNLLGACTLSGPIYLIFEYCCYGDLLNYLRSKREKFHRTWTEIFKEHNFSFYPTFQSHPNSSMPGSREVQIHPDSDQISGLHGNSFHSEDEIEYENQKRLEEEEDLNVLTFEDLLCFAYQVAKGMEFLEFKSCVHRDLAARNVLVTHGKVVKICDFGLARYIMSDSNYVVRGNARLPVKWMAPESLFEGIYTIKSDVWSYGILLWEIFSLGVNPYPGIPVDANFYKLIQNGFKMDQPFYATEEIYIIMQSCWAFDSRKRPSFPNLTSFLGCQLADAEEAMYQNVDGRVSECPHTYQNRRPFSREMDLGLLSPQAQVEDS

[1] = molecular target: T3, ABL1(F317I)-nonphosphorylated (Homo sapiens, UniProt P00519, F317I)
T3 construct: nonphosphorylated

[2] = read-out: Niraparib (MK-4827) / %Ctrl @ 10000nM
[3] = read-out: Olaparib / %Ctrl @ 10000nM
[4] = read-out: Rucaparib / %Ctrl @ 10000nM, binding competition, % of control
[5] = read-out: Talazoparib (BMN 673) / %Ctrl @ 10000nM

Sequence of IGF1R (P08069 whole entry): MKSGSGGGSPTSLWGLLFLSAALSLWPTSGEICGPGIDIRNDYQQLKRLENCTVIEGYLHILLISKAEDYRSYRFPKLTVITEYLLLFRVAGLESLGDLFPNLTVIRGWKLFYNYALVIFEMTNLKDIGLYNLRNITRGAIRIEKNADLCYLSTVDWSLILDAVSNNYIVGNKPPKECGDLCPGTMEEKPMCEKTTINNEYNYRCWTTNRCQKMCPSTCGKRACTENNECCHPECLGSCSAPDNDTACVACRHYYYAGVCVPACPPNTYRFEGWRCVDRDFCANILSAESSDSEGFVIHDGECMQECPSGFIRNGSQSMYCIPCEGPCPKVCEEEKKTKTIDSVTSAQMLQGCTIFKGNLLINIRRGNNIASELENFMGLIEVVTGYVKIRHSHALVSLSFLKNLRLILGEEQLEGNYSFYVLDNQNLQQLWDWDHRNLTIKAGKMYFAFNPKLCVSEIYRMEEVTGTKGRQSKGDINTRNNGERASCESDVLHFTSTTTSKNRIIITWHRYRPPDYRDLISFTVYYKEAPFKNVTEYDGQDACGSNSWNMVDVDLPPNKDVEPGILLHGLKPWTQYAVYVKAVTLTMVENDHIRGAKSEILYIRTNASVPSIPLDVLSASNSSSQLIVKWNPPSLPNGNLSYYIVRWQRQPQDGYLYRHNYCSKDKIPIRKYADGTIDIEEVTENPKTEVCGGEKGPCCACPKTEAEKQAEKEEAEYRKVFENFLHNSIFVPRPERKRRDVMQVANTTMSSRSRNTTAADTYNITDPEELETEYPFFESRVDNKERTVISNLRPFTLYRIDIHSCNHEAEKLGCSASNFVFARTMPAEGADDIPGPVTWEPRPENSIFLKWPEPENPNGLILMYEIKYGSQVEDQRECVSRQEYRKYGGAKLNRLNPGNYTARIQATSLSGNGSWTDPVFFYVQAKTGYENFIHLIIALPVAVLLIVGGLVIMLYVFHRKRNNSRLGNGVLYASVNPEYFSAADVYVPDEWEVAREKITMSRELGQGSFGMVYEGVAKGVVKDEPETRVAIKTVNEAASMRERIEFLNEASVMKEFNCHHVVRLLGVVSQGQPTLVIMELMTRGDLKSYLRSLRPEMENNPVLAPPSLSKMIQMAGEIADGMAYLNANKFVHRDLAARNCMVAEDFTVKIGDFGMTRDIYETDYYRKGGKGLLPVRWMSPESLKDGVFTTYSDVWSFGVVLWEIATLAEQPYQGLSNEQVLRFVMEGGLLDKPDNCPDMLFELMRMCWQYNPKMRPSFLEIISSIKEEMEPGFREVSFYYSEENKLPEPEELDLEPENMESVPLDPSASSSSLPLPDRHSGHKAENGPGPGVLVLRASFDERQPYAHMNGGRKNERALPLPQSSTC
T3 sequence (P00519 whole entry F317I): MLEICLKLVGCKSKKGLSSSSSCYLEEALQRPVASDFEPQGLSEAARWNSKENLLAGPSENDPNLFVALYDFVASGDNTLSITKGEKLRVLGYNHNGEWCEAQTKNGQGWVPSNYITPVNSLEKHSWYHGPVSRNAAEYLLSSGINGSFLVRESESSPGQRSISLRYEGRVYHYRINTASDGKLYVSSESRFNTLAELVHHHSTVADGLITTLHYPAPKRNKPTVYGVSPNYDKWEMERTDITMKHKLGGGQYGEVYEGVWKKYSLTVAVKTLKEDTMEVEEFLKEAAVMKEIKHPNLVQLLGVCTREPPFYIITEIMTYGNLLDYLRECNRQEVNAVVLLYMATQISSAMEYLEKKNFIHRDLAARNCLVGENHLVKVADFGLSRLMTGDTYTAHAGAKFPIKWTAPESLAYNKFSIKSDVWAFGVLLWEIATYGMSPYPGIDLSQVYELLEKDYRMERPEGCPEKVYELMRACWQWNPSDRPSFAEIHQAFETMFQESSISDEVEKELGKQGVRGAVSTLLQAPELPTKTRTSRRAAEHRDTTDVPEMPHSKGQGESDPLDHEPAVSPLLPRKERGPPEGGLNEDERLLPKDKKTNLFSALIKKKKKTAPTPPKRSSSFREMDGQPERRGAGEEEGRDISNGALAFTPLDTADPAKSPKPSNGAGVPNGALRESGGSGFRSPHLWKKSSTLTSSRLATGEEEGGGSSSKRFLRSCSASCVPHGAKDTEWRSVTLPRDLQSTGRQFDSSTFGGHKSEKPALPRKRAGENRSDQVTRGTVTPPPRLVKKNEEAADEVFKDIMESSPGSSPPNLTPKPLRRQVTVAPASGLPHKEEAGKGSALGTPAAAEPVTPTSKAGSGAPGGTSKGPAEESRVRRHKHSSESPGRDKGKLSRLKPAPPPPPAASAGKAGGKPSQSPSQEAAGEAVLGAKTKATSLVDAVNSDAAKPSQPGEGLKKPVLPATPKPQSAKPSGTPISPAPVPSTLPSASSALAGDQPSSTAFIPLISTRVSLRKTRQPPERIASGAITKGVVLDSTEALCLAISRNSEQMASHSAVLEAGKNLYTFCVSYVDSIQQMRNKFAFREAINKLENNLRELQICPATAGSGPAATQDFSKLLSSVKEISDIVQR
Sequence of ALK(L1196M) (Q9UM73 whole entry L1196M): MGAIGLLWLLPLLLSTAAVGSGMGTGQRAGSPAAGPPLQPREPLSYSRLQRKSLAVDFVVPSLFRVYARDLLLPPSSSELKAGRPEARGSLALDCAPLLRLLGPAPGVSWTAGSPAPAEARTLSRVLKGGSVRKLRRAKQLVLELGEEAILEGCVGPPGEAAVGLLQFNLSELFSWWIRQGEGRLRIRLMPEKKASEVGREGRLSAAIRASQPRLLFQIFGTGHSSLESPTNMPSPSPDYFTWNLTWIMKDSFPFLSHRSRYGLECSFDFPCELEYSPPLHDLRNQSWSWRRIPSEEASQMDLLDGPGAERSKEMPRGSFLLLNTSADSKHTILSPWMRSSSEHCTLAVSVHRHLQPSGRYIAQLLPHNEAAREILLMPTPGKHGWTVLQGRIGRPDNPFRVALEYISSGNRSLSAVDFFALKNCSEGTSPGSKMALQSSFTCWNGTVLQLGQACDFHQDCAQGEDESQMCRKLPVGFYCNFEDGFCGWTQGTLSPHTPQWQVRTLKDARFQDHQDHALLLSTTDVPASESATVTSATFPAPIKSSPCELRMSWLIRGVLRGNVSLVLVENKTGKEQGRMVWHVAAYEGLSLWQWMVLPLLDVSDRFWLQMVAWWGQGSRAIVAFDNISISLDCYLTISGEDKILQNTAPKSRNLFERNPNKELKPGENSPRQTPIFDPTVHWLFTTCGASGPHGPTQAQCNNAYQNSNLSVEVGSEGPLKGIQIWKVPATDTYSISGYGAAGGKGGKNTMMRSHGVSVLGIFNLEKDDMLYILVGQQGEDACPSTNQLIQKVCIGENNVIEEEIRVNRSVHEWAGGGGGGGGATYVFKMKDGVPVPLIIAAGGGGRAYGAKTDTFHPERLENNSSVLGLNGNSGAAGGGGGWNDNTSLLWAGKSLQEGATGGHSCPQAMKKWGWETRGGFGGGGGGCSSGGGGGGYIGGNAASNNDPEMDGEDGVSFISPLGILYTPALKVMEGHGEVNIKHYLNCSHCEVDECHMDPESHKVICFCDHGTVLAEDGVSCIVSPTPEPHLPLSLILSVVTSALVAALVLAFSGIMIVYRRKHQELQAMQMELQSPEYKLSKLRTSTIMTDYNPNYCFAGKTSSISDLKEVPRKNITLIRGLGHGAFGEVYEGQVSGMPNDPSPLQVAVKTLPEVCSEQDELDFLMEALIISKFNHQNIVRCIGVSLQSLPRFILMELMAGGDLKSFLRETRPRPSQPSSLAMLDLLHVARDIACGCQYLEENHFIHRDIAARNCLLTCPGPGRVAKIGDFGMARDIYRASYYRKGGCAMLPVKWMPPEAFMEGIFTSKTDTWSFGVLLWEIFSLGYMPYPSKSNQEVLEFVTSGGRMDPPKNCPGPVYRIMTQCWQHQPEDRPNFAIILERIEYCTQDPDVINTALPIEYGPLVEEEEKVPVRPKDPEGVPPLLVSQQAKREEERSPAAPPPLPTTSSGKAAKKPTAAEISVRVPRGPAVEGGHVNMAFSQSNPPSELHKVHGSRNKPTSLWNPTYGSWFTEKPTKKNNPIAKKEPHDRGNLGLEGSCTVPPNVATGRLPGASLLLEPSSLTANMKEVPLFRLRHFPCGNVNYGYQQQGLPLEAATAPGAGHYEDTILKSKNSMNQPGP

For `NC(=O)c1cccc2cn(-c3ccc([C@@H]4CCCNC4)cc3)nc12` [Niraparib], the percent of control binding at 10 µM (ALK(L1196M); [2]) was 81%, the percent of control binding at 10 µM (IGF1R; [2]) was 97% and the percent of control binding at 10 µM (PRKD2; [2]) was 87%. For the same compound, the percent of control binding at 10 µM (FLT3(D835Y); [2]) was 54% and the percent of control binding at 10 µM [1, 2] was 86%.

Compound `O=C(c1cc(Cc2n[nH]c(=O)c3ccccc23)ccc1F)N1CCN(C(=O)C2CC2)CC1` [Olaparib] has a percent of control binding at 10 µM (ALK(L1196M); [3]) of 83%, a percent of control binding at 10 µM (IGF1R; [3]) of 95% and a percent of control binding at 10 µM (PRKD2; [3]) of 95%. It also gave a percent of control binding at 10 µM (FLT3(D835Y); [3]) of 87% and a percent of control binding at 10 µM [1, 3] of 66%.

Work on `CNCc1ccc(-c2[nH]c3cc(F)cc4c3c2CCNC4=O)cc1` [Rucaparib] yielded a percent of control binding at 10 µM (ALK(L1196M); [4]) of 83%, a percent of control binding at 10 µM (IGF1R; [4]) of 98% and a percent of control binding at 10 µM (PRKD2; [4]) of 77%. For the same compound, the “Rucaparib / %Ctrl @ 10000nM” value (FLT3(D835Y); binding competition, % of control) was 24% and the percent of control binding at 10 µM [1, 4] was 71%.

Work on `Cn1ncnc1[C@H]1c2n[nH]c(=O)c3cc(F)cc(c23)N[C@@H]1c1ccc(F)cc1` [Talazoparib] yielded a percent of control binding at 10 µM (ALK(L1196M); [5]) of 100%, a percent of control binding at 10 µM (IGF1R; [5]) of 87% and a percent of control binding at 10 µM (PRKD2; [5]) of 100%. It also gave a percent of control binding at 10 µM (FLT3(D835Y); [5]) of 96% and a percent of control binding at 10 µM [1, 5] of 96%.

From PMC7026418, “The kinase polypharmacology landscape of clinical PARP inhibitors” (Scientific Reports, 2020)
